Reference: ChEMBL document CHEMBL5518174 (Eur J Med Chem, 2024)
Activity calls are given as the source filed them. The calls are words filed in the database; no cut-off is given here.

What was measured:
Histone deacetylase = experiment: Inhibition of HDAC in human HeLa cells nuclear extract; type: subcellular, Nucleus
NCI-H1975 [1] = experiment: cells; type: functional, cell-based; conditions: Homo sapiens, NCI-H1975, 48 h
Description: Cytotoxicity against human NCI-H1975 cells assessed as inhibition of cell growth incubated for 48 hrs by Celltiter-glo assay

MDA-MB-231 = experiment: Cytotoxicity against human MDA-MB-231 cells assessed as inhibition of cell growth incubated for 48 hrs by Celltiter-glo assay; type: functional, cell-based; conditions: MDA-MB-231, 48 h
[2] = Antiproliferative activity against human CL152 cells harboring wild-type EGFR assessed as inhibition of cell growth by SRB assay; type: functional, cell-based
[3] = Antiproliferative activity against human CL25 cells harboring mutated EGFR assessed as inhibition of cell growth by SRB assay; type: functional, cell-based
CL97 = experiment: Antiproliferative activity against human CL97 cells harboring mutated EGFR assessed as inhibition of cell growth by SRB assay; type: functional, cell-based
[4] = Antiproliferative activity against human CL83 cells harboring wild-type EGFR assessed as inhibition of cell growth by SRB assay; type: functional, cell-based
[5] = Antiproliferative activity against human CL141 cells harboring wild-type EGFR assessed as inhibition of cell growth by SRB assay; type: functional, cell-based
CL1-0 = experiment: Antiproliferative activity against human CL1-0 cells harboring wild-type EGFR assessed as inhibition of cell growth by SRB assay; type: functional, cell-based
[6] = Antiproliferative activity against human CL1-5 cells harboring wild-type EGFR assessed as inhibition of cell growth by SRB assay; type: functional, cell-based
[7] = Antiproliferative activity against human CL100 cells harboring mutated EGFR assessed as inhibition of cell growth by SRB assay; type: functional, cell-based
NCI-H1975 [8] = experiment: Induction of katanin activation mediated microtubule fragmentation in human NCI-H1975 cells at 80 nM incubated for 12 hrs by FITC/DAPI staining based confocal laser microscopic analysis; type: cell-based; conditions: filed as activator

| SMILES | IC50 (Histone deacetylase) | IC50 (NCI-H1975 [1]) | further results |
| --- | --- | --- | --- |
| CCOc1ccc(-c2nc(C(=O)NCCCCCCC(=O)NO)c3[nH]c(=O)n(-c4ccccc4OC)c3n2)cc1S(N)(=O)=O | 60 nM | 24800 nM |  |
| CCOc1ccc(-c2nc(C(=O)NCCCCCCC(=O)Nc3nccs3)c3[nH]c(=O)n(-c4ccccc4OC)c3n2)cc1 | > 100000 nM | 2600 nM |  |
| CCOc1ccc(-c2nc(C(=O)NCCCCCCNC(=O)CN)c3[nH]c(=O)n(-c4ccccc4OC)c3n2)cc1.Cl | > 100000 nM | 2400 nM |  |
| CCOc1ccc(-c2nc(C(=O)NCCCCCCC(=O)O)c3[nH]c(=O)n(-c4ccccc4OC)c3n2)cc1 | > 100000 nM | 3400 nM |  |
| COc1ccccc1-n1c(=O)[nH]c2c(C(=O)NCCCCCCC(=O)NO)nc(C(C)C)nc21 | 200 nM | 1500 nM |  |
| CCOc1ccc(-c2nc(C(=O)NCCCc3nc(C(=O)NO)cs3)c3[nH]c(=O)n(-c4ccccc4OC)c3n2)cc1 | 14200 nM | 4900 nM |  |
| CCOc1ccc(-c2nc(C(=O)NCCCCNC(=O)CN)c3[nH]c(=O)n(-c4ccccc4OC)c3n2)cc1.Cl | > 100000 nM | 16200 nM |  |
| COc1ccccc1-n1c(=O)[nH]c2c(C(N)=O)nc(-c3ccc(C(C)C)cc3)nc21 | > 100000 nM | > 100000 nM |  |
| CCOc1ccc(-c2nc(C(=O)NCCCCCNC(=O)CN)c3[nH]c(=O)n(-c4ccccc4OC)c3n2)cc1.Cl | > 100000 nM | 4900 nM |  |
| CCOc1ccc(-c2nc(C(=O)NCCCCCCC(=O)N(Cc3ccccn3)Cc3ccccn3)c3[nH]c(=O)n(-c4ccccc4OC)c3n2)cc1 | > 100000 nM | 2300 nM |  |
| CCOc1ccc(-c2nc(C(=O)NCCCCCCC(=O)CSC(C)=O)c3[nH]c(=O)n(-c4ccccc4OC)c3n2)cc1 | 2830 nM | 5600 nM |  |
| CCOc1ccc(-c2nc(C(N)=O)c3[nH]c(=O)n(-c4ccccc4OC)c3n2)cc1 | > 100000 nM |  |  |
| CCOc1ccc(-c2nc(C(=O)NCCCCCCNC(N)=O)c3[nH]c(=O)n(-c4ccccc4OC)c3n2)cc1 | > 100000 nM | 2000 nM |  |
| CCOc1ccc(-c2nc(C(=O)NCCCCCCCN(Cc3ccccn3)Cc3ccccn3)c3[nH]c(=O)n(-c4ccccc4OC)c3n2)cc1 | > 100000 nM | 2700 nM |  |
| CCOc1ccc(-c2nc(C(=O)NCCOCCOCC(=O)NO)c3[nH]c(=O)n(-c4ccccc4OC)c3n2)cc1 | 10800 nM | 4600 nM |  |
| CCOc1ccc(-c2nc(C(=O)NO)c3[nH]c(=O)n(-c4ccccc4OC)c3n2)cc1 | > 100000 nM |  |  |
| CCOc1ccc(-c2nc(C(=O)NCCCCCCNC(=O)NO)c3[nH]c(=O)n(-c4ccccc4OC)c3n2)cc1 | > 100000 nM | 3300 nM |  |
| CCOc1ccc(-c2nc(C(=O)NCCCCCCC(=O)Nc3ccccc3N)c3[nH]c(=O)n(-c4ccccc4OC)c3n2)cc1 | > 100000 nM | 2200 nM |  |
| CCOc1ccc(-c2nc(C(=O)O)c3[nH]c(=O)n(-c4ccccc4OC)c3n2)cc1 | > 100000 nM | > 100000 nM |  |

Continued, in another order:

| IC50 (Histone deacetylase) | IC50 (NCI-H1975 [1]) | SMILES | further results |
| --- | --- | --- | --- |
| > 100000 nM | 1500 nM | CCOc1ccc(-c2nc(C(=O)NCCCCCCC(=O)N(C)O)c3[nH]c(=O)n(-c4ccccc4OC)c3n2)cc1 |  |
| > 100000 nM | 400 nM | CCOc1ccc(-c2nc(C(=O)NCCCCCCC(=O)NOC)c3[nH]c(=O)n(-c4ccccc4OC)c3n2)cc1 |  |
| > 100000 nM | 500 nM | CCOc1ccc(-c2nc(C(=O)NCCCCC/C(N)=N/O)c3[nH]c(=O)n(-c4ccccc4OC)c3n2)cc1 |  |
| 10 nM | 1200 nM | COc1ccc(-c2nc(C(=O)NCCCCCCC(=O)NO)c3[nH]c(=O)n(-c4ccccc4OC)c3n2)cc1O | IC50 (MDA-MB-231): 310 nM |
| 2 nM | 410 nM | CCOc1ccc(-c2nc(C(=O)NCCCCCCC(=O)NO)c3[nH]c(=O)n(-c4cccnc4OC)c3n2)cn1 | IC50 (MDA-MB-231): 320 nM |
| 40 nM | 400 nM | CCOc1ccc(-c2nc(C(=O)NCCCCCCC(=O)NO)c3[nH]c(=O)n(-c4ccccc4OC)c3n2)cn1 | IC50 (MDA-MB-231): 60 nM |
| > 100000 nM | 1400 nM | CCOc1ccc(-c2nc(C(=O)NCCCCCCC(=O)NC3CCCCC3O)c3[nH]c(=O)n(-c4ccccc4OC)c3n2)cc1 (centres undefined) |  |
| 130 nM | 250 nM | CCOc1ccc(-c2nc(C(=O)NOCCCCCC(=O)NO)c3[nH]c(=O)n(-c4ccccc4OC)c3n2)cc1 | IC50 (MDA-MB-231): 100 nM |
| 250 nM | 130 nM | CCOc1ccc(-c2nc(C(=O)NCc3ccc(C(=O)NO)cc3)c3[nH]c(=O)n(-c4ccccc4OC)c3n2)cc1 | IC50 (MDA-MB-231): 70 nM |
| 170 nM | 140 nM | CCOc1ccc(-c2nc(C(=O)NCCCCCCC(=O)NO)c3[nH]c(=O)n(-c4ccccc4OC)c3n2)cc1 | IC50 [2]: 260 nM; IC50 [3]: 320 nM; IC50 (CL97): 240 nM; IC50 [4]: 320 nM; IC50 [5]: 270 nM; IC50 (CL1-0): 60 nM; IC50 [6]: 170 nM; IC50 [7]: 360 nM; Activity (NCI-H1975 [8]): Active; IC50 (MDA-MB-231): 40 nM |
| 30 nM | 300 nM | CCOc1ccc(-c2nc(C(=O)NCCCCCCC(=O)NO)c3[nH]c(=O)n(-c4cccnc4OC)c3n2)cc1 | IC50 (MDA-MB-231): 60 nM |
